Reference: ChEMBL document CHEMBL1201862, “PubChem BioAssay data set” (2004)
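Where inhibition never reached the appropriate level, the endpoint shown equals the highest concentration tested. Otherwise, values were interpolated linearly from a five-concentration, 48-hour dose response in 96-well plates. GI50: concentration for 50% inhibition of growth.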 Active and inactive are the calls of the source. No stated cut-off is given here; in the data, active = GI50 up to about 1.1 µM and inactive = higher.

Columns and labels:
Assay in all cases: NCI tumour cell line growth inhibition, 48 h
786-0 = system: 786-0
A498 = system: A498
A549 = system: A549
ACHN = system: ACHN
BT-549 = system: BT-549
CAKI-1 = system: CAKI-1
CCRF-CEM = system: CCRF-CEM
COLO 205 = system: COLO 205
DU-145 = system: DU-145
EKVX = system: EKVX
HCC 2998 = system: HCC 2998
HCT-116 = system: HCT-116
HCT-15 = system: HCT-15
HL-60 = system: HL-60
HOP-62 = system: HOP-62
HOP-92 = system: HOP-92
HT-29 = system: HT-29
Hs-578T = system: Hs-578T
IGROV-1 = system: IGROV-1
K562 = system: K562
KM12 = system: KM12
LOX IMVI = system: LOX IMVI
M14 = system: M14
MCF7 = system: MCF7
MDA-MB-231 = system: MDA-MB-231
MDA-MB-435 = system: MDA-MB-435
MDA-N = system: MDA-N
MOLT-4 = system: MOLT-4
Malme-3M = system: Malme-3M
NCI-H226 = system: NCI-H226
NCI-H23 = system: NCI-H23
NCI-H460 = system: NCI-H460
NCI-H522 = system: NCI-H522
OVCAR-3 = system: OVCAR-3
OVCAR-4 = system: OVCAR-4
OVCAR-5 = system: OVCAR-5
OVCAR-8 = system: OVCAR-8
PC-3 = system: PC-3
RPMI-8226 = system: RPMI-8226
RXF 393 = system: RXF 393
SF-268 = system: SF-268
SF-295 = system: SF-295
SF-539 = system: SF-539
SK-MEL-28 = system: SK-MEL-28
SK-MEL-2 = system: SK-MEL-2
SK-MEL-5 = system: SK-MEL-5
SK-OV-3 = system: SK-OV-3
SN12C = system: SN12C
SNB-19 = system: SNB-19
SNB-75 = system: SNB-75
SR = system: SR
SW-620 = system: SW-620
T47D = system: T47D
TK-10 = system: TK-10
U-251 = system: U-251
UACC-257 = system: UACC-257
UACC-62 = system: UACC-62

Compound: CC(C)c1ccc(/C=C2\N=C(c3ccc([N+](=O)[O-])cc3)OC2=O)cc1
- GI50 (786-0): > 100 µM (inactive)
- GI50 (A498): > 100 µM (inactive)
- GI50 (A549): > 100 µM (inactive)
- GI50 (ACHN): > 100 µM (inactive)
- GI50 (BT-549): > 100 µM (inactive)
- GI50 (CAKI-1): > 100 µM (inactive)
- GI50 (CCRF-CEM): 55.7 µM (inactive)
- GI50 (COLO 205): > 100 µM (inactive)
- GI50 (DU-145): > 100 µM (inactive)
- GI50 (EKVX): > 100 µM (inactive)
- GI50 (HCC 2998): > 100 µM (inactive)
- GI50 (HCT-116): > 100 µM (inactive)
- GI50 (HCT-15): > 100 µM
- GI50 (HL-60): > 100 µM (inactive)
- GI50 (HOP-62): > 100 µM (inactive)
- GI50 (HOP-92): > 100 µM (inactive)
- GI50 (HT-29): > 100 µM (inactive)
- GI50 (Hs-578T): > 100 µM (inactive)
- GI50 (IGROV-1): > 100 µM (inactive)
- GI50 (K562): > 100 µM (inactive)
- GI50 (KM12): > 100 µM (inactive)
- GI50 (LOX IMVI): > 100 µM (inactive)
- GI50 (M14): > 100 µM (inactive)
- GI50 (MCF7): > 100 µM (inactive)
- GI50 (MDA-MB-231): > 100 µM (inactive)
- GI50 (MDA-MB-435): > 100 µM (inactive)
- GI50 (MDA-N): > 100 µM (inactive)
- GI50 (MOLT-4): > 100 µM (inactive)
- GI50 (Malme-3M): 60.3 µM (inactive)
- GI50 (NCI-H226): > 100 µM (inactive)
- GI50 (NCI-H23): > 100 µM (inactive)
- GI50 (NCI-H460): > 100 µM (inactive)
- GI50 (NCI-H522): > 100 µM (inactive)
- GI50 (OVCAR-3): > 100 µM (inactive)
- GI50 (OVCAR-4): > 100 µM (inactive)
- GI50 (OVCAR-5): > 100 µM (inactive)
- GI50 (OVCAR-8): > 100 µM (inactive)
- GI50 (PC-3): > 100 µM (inactive)
- GI50 (RPMI-8226): > 100 µM (inactive)
- GI50 (RXF 393): 14.9 µM (inactive)
- GI50 (SF-268): > 100 µM (inactive)
- GI50 (SF-295): > 100 µM (inactive)
- GI50 (SF-539): > 100 µM (inactive)
- GI50 (SK-MEL-28): > 100 µM (inactive)
- GI50 (SK-MEL-2): > 100 µM (inactive)
- GI50 (SK-MEL-5): > 100 µM (inactive)
- GI50 (SK-OV-3): > 100 µM (inactive)
- GI50 (SN12C): > 100 µM (inactive)
- GI50 (SNB-19): > 100 µM (inactive)
- GI50 (SNB-75): > 100 µM (inactive)
- GI50 (SR): > 100 µM (inactive)
- GI50 (SW-620): > 100 µM (inactive)
- GI50 (T47D): > 100 µM (inactive)
- GI50 (TK-10): > 100 µM (inactive)
- GI50 (U-251): 54.2 µM (inactive)
- GI50 (UACC-257): > 100 µM (inactive)
- GI50 (UACC-62): > 100 µM (inactive)
